We go through three compounds from ChEMBL document CHEMBL1152560, “Substituted 2-arylbenzothiazoles as kinase inhibitors: hit-to-lead optimization” (Bioorg Med Chem, 2009).

For experiment [1], the target named is CDK8/Cyclin C (Homo sapiens) (UniProt P49336+P24863). Briefly: Residual activity of CDK8/Cyclin C at 10 uM by microplate scintillation counting. The experiment is classed as protein-complex assay.
The target of experiment [2] is T1, Serine/threonine-protein kinase TAO2 (Homo sapiens) (UniProt Q9UL54).
T1 sequence (whole entry): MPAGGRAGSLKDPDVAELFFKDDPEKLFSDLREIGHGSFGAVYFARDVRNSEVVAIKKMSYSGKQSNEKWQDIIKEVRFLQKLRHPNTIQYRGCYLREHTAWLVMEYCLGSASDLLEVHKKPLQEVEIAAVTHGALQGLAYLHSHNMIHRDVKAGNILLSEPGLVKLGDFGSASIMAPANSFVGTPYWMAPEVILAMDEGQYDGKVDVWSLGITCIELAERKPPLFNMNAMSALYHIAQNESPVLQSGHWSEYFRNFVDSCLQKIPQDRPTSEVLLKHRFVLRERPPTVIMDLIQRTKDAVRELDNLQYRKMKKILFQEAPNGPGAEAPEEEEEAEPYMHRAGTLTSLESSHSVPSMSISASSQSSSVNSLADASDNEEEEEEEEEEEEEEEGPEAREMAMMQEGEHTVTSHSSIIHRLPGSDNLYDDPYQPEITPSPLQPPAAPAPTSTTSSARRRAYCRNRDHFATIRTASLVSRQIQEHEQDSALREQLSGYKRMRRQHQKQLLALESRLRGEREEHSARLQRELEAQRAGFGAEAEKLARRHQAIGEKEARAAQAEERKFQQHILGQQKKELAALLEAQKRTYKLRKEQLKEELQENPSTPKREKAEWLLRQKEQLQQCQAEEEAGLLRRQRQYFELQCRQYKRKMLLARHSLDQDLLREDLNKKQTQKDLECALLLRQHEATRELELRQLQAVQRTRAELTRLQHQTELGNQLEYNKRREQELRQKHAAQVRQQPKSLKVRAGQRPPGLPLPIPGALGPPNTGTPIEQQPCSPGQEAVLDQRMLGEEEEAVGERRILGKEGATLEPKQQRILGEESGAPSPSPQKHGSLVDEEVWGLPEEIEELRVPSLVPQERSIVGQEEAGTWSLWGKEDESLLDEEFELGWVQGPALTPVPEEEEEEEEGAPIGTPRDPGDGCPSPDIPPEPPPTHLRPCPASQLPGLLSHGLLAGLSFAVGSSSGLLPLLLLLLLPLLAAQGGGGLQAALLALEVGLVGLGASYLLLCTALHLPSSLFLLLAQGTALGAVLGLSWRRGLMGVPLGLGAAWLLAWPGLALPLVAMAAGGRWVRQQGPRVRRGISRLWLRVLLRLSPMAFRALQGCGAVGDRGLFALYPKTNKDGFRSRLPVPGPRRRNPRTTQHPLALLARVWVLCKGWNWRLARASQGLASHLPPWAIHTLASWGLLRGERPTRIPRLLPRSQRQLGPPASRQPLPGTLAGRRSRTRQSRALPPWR
Briefly: Residual activity of TAOK2 at 1 uM by microplate scintillation counting.

Experiment [3] concerns the target T2, Eukaryotic elongation factor 2 kinase (Homo sapiens) (UniProt O00418).
T2 sequence (whole entry): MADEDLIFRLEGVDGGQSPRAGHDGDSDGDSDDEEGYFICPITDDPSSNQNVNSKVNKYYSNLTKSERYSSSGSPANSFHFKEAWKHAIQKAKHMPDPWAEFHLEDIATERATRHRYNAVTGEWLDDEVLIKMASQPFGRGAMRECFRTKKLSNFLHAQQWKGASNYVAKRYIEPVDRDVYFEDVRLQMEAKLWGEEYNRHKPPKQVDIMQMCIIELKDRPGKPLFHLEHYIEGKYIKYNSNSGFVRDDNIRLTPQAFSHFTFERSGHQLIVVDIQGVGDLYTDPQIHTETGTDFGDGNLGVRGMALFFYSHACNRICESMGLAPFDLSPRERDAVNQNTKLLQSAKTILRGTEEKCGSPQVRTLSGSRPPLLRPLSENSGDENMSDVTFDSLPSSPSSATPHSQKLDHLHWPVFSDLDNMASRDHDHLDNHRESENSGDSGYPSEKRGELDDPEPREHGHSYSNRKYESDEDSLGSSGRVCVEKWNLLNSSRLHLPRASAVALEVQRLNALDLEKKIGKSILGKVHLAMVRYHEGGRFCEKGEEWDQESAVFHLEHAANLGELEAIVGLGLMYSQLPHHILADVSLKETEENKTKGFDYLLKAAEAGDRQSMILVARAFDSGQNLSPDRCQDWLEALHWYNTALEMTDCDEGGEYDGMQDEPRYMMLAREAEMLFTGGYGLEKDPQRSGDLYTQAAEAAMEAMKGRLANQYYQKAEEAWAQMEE
Briefly: Residual activity of EEF2K at 0.1 uM by microplate scintillation counting.

Experiment [4] addresses T3, Ephrin type-B receptor 3 (Homo sapiens) (UniProt P54753).
T3 sequence (whole entry): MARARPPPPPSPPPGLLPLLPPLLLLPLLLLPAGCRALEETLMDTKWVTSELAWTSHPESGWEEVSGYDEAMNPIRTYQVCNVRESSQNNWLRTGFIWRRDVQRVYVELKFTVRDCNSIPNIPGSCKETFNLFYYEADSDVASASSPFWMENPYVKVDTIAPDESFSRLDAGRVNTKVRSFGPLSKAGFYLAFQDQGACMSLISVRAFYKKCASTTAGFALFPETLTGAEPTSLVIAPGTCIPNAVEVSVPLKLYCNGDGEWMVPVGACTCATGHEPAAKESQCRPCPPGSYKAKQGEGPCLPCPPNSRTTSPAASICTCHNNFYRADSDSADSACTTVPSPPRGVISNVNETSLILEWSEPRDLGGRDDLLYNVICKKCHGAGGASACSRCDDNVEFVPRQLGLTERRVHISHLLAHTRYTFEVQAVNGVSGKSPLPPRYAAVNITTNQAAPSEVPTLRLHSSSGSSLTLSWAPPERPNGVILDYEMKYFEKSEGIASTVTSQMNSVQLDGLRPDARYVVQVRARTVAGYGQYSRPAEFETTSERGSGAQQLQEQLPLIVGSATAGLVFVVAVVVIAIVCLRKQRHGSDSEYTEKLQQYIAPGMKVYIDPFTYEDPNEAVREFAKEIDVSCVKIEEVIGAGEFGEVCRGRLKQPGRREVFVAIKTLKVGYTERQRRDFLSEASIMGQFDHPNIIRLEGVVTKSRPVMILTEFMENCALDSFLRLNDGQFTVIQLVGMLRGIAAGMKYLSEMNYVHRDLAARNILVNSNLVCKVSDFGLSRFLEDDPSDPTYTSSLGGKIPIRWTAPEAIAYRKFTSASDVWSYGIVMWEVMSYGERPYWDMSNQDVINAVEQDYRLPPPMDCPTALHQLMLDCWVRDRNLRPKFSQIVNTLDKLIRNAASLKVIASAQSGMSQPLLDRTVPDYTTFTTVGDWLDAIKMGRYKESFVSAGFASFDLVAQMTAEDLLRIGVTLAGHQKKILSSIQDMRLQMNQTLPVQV
The experiment is described as follows: Residual activity of EPHB3 at 10 uM by microplate scintillation counting.

Structures are written as SMILES.

As to `COc1cc2c(Oc3ccc(-c4nc5ccccc5s4)cc3)ncnc2cc1OCCCN1CCN(C)CC1`, the residual activity in experiment [1] is 88%; in experiment [2], 97%; in experiment [3], 92%; in experiment [4], 372%.
`COc1cc2c(Oc3ccc(-c4nc5ccccc5s4)cc3)ncnc2cc1OCCCN1CCCC1`: the residual activity in experiment [1] worked out at 82%; in experiment [2], 99%; in experiment [3], 91%; in experiment [4] it was 227%.
For the compound `COc1cc2c(Oc3ccc(-c4nc5ccccc5s4)cc3F)ncnc2cc1OCCCN1CCN(C)CC1`, the residual activity is 75% in experiment [1], 101% in experiment [2], 88% in experiment [3] and 105% in experiment [4].

For orientation: residual activity means the signal under treatment as a percentage of the control signal.
